For series [1], the system named is HCT 116. The series is described as follows: Antiproliferative activity assay (WST-8). The format is cell-based. The settings on record: Homo sapiens, HCT-116, 96 h. As to the method:
Antiproliferative activity assay was carried out as follows. A single suspension of tumor cells was inoculated to the serially diluted 96-well microtestplate. Then the testplate was incubated in the 5% CO2 ambience at 37° C. for 4 days (2-3×10^3 cells/well). The degree of cell growth in a monolayer was measured by using WST-8 (Dojindo, Japan). IC50 values of drugs against tumor cells were calculated as the concentration of drug yielding 50% OD of the control growth.

A short description of series [2]: Maximum tolerated dose (MTD) by i.v. administration in mice. The settings on record: mouse, in vivo, iv, read-out: maximum tolerated doses (MTD). As to the method:
The maximum tolerated doses (MTD) of the following representative compounds
of the present invention were examined by i.v. administration in mice. The respective MTD values of the compounds were 14, 18, 10, 8, 8, 2 and 2 mg/kg.

Where [3] appears, read: incubated 4 days, WST-8, concentration of drug yielding 50% OD of the control growth, read-out: HCT 116 IC50.

Structures are written as SMILES. Like-named read-outs stand apart in the source and are kept apart here.

For `CCSC(C(C)C(=O)N(C)CCc1cccc(O)c1)C1CCCN1C(=O)CC(OC)C(C(C)CC)N(C)C(=O)C(NC(=O)C(C(C)C)N(C)C)C(C)C` (single isomer, unassigned) [N-[1-({1-sec-Butyl-4-[2-(1-ethylsulfanyl-2-{[2-(3-hydroxy-phenyl)-ethyl]-methyl-carbamoyl}-propyl)-pyrrolidin-1-yl]-2-methoxy-4-oxo-butyl}-methyl-carbamoyl)-2-methyl-propyl]-2-dimethylamino-3-methyl-butyramide], the IC50 in series [1] (setting [3]) amounted to 0.11 nM. Also, the MTD in series [2] is 8 mg/kg. Turning to `CCSC(C(C)C(=O)NCCc1cccc(O)c1)C1CCCN1C(=O)CC(OC)C(C(C)CC)N(C)C(=O)C(NC(=O)C(C(C)C)N(C)C)C(C)C` (single isomer, unassigned) [N-(1-{[1-sec-Butyl-4-(2-{1-ethylsulfanyl-2-[2-(3-hydroxy-phenyl)-ethylcarbamoyl]-propyl}-pyrrolidin-1-yl)-2-methoxy-4-oxo-butyl]-methyl-carbamoyl}-2-methyl-propyl)-2-dimethylamino-3-methyl-butyramide], the IC50 in series [1] (read-out: HCT 116 IC50 (nM)) is 0.84 nM. Besides, the MTD in series [2] worked out at 2 mg/kg.

With `CCC(C)C(C(CC(=O)N1CCCC1C(SC)C(C)C(=O)N(C)CCc1cccc(O)c1)OC)N(C)C(=O)C(NC(=O)C(C(C)C)N(C)C)C(C)C` (single isomer, unassigned) [N-[1-({1-sec-Butyl-4-[2-(2-{[2-(3-hydroxy-phenyl)-ethyl]-methyl-carbamoyl}-1-methylsulfanyl-propyl)-pyrrolidin-1-yl]-2-methoxy-4-oxo-butyl}-methyl-carbamoyl)-2-methyl-propyl]-2-dimethylamino-3-methyl-butyramide], the 50% inhibitory concentration (IC50) in series [1] (setting [3]) was found to be 0.66 nM. In addition, in series [2], the maximal tolerated dose (MTD) was 8 mg/kg. Taken in the same sequence, the figures for `CCC(C)C(C(CC(=O)N1CCCC1C(CC(=O)NCCc1ccccc1)SC)OC)N(C)C(=O)C(NC(=O)C(NC)C(C)C)C(C)C` (stereo not shown) [N-[1-({1-sec-Butyl-2-methoxy-4-[2-(1-methylsulfanyl-2-phenethylcarbamoylethyl)pyrrolidin-1-yl]-4-oxo-butyl}-methyl-carbamoyl)-2-methyl-propyl]-3-methyl-2-methylamino-butyramide] were 0.12 nM and 14 mg/kg. `CCC(C)C(C(CC(=O)N1CCCC1C(CC(=O)NCCc1ccccc1)S(C)(=O)=O)OC)N(C)C(=O)C(NC(=O)C(NC)C(C)C)C(C)C` (stereo not shown) [N-[1-({1-sec-Butyl-4-[2-(1-methanesulfonyl-2-phenethylcarbamoyl-ethyl)-pyrrolidin-1-yl]-2-methoxy-4-oxo-butyl}-methyl-carbamoyl)-2-methyl-propyl]-3-methyl-2-methylamino-butyramide]: in series [1] (setting [3]), the IC50 stood at 0.77 nM. Also, in series [2], the MTD is 18 mg/kg.

`CCC(C)C(C(CC(=O)N1CCCC1C(CC(=O)NCCc1ccccc1)SC(C)C)OC)N(C)C(=O)C(NC(=O)C(NC)C(C)C)C(C)C` (stereo not shown) [N-[1-({1-sec-Butyl-4-[2-(1-isopropylsulfanyl-2-phenethylcarbamoyl-ethyl)-pyrrolidin-1-yl]-2-methoxy-4-oxo-butyl}-methyl-carbamoyl)-2-methyl-propyl]-3-methyl-2-methylamino-butyramide]: the 50% inhibitory concentration (IC50) in series [1] (setting [3]) was 0.65 nM. Besides, the MTD in series [2] came to 10 mg/kg. As for `CCCCCSC(CC(=O)NCCc1ccccc1)C1CCCN1C(=O)CC(OC)C(C(C)CC)N(C)C(=O)C(NC(=O)C(C(C)C)N(C)C)C(C)C` (stereo not shown) [N-[1-({1-sec-Butyl-2-methoxy-4-oxo-4-[2-(1-pentylsulfanyl-2-phenethylcarbamoyl-ethyl)-pyrrolidin-1-yl]-butyl}-methyl-carbamoyl)-2-methyl-propyl]-2-dimethylamino-3-methyl-butyramide], the IC50 in series [1] (setting [3]) is 0.75 nM. Take `CCC(C)C(C(CC(=O)N1CCCC1C(CC(=O)NCCc1ccccc1)SCc1ccccc1)OC)N(C)C(=O)C(NC(=O)C(C(C)C)N(C)C)C(C)C` (stereo not shown) [N-[1-({4-[2-(1-Benzylsulfanyl-2-phenethylcarbamoyl-ethyl)-pyrrolidin-1-yl]-1-sec-butyl-2-methoxy-4-oxo-butyl}-methyl-carbamoyl)-2-methyl-propyl]-2-dimethylamino-3-methyl-butyramide]: in series [1] (setting [3]), the half-inhibitory concentration (IC50) was found to be 0.52 nM. For the compound `CCC(C)C(C(CC(=O)N1CCCC1C(CC(=O)NCCc1ccccc1)Sc1ccccc1)OC)N(C)C(=O)C(NC(=O)C(C(C)C)N(C)C)C(C)C` (stereo not shown) [N-[1-({1-sec-Butyl-2-methoxy-4-oxo-4-[2-(2-phenethylcarbamoyl-1-phenylsulfanyl-ethyl)-pyrrolidin-1-yl]-butyl}-methyl-carbamoyl)-2-methyl-propyl]-2-dimethylamino-3-methyl-butyramide], the half-inhibitory concentration (IC50) in series [1] (setting [3]) was 0.33 nM. For the compound `CCC(C)C(C(CC(=O)N1CCCC1C(SC)C(C)C(=O)NCCc1cccc(O)c1)OC)N(C)C(=O)C(NC(=O)C(C(C)C)N(C)C)C(C)C` (single isomer, unassigned) [N-(1-{[1-sec-Butyl-4-(2-{2-[2-(3-hydroxy-phenyl)-ethylcarbamoyl]-1-methylsulfanyl-propyl}-pyrrolidin-1-yl)-2-methoxy-4-oxo-butyl]-methyl-carbamoyl}-2-methyl-propyl)-2-dimethylamino-3-methyl-butyramide], the IC50 in series [1] (read-out: HCT 116 IC50 (nM)) was found to be 0.19 nM. In addition, the MTD in series [2] was found to be 2 mg/kg. On to `CCC(C)C(C(CC(=O)N1CCCC1C(CC(=O)NCCc1ccccc1)SCCOC(C)=O)OC)N(C)C(=O)C(NC(=O)C(C(C)C)N(C)C)C(C)C` (stereo not shown) [Acetic acid 2-{1-[1-(4-{[2-(2-dimethylamino-3-methyl-butyrylamino)-3-methyl-butyryl]-methyl-amino}-3-methoxy-5-methyl-heptanoyl)-pyrrolidin-2-yl]-2-phenethylcarbamoyl-ethylsulfanyl}-ethyl ester], for which the concentration for half-maximal inhibition (IC50) in series [1] (setting [3]) amounted to 0.19 nM. On the same count and under the same terms, the same measure for `CCC(C)C(C(CC(=O)N1CCCC1C(CC(=O)NCCc1ccccc1)Sc1cccc(O)c1)OC)N(C)C(=O)C(NC(=O)C(C(C)C)N(C)C)C(C)C` (stereo not shown) [N-{1-[(1-sec-Butyl-4-{2-[1-(3-hydroxy-phenylsulfanyl)-2-phenethylcarbamoyl-ethyl]-pyrrolidin-1-yl}-2-methoxy-4-oxo-butyl)-methyl-carbamoyl]-2-methyl-propyl}-2-dimethylamino-3-methyl-butyramide]: 0.3 nM; for `CCC(C)C(C(CC(=O)N1CCCC1C(CC(=O)NCCc1ccccn1)SC)OC)N(C)C(=O)C(NC(=O)C(C(C)C)N(C)C)C(C)C` (stereo not shown) [N-{1-[(1-sec-Butyl-2-methoxy-4-{2-[1-methylsulfanyl-2-(2-pyridin-2-yl-ethylcarbamoyl)-ethyl]-pyrrolidin-1-yl}-4-oxo-butyl)-methyl-carbamoyl]-2-methyl-propyl}-2-dimethylamino-3-methyl-butyramide]: 0.9 nM; for `C=CCSC(CC(=O)NCCc1ccccc1)C1CCCN1C(=O)CC(OC)C(C(C)CC)N(C)C(=O)C(NC(=O)C(C(C)C)N(C)C)C(C)C` (stereo not shown) [N-[1-({4-[2-(1-Allylsulfanyl-2-phenethylcarbamoyl-ethyl)-pyrrolidin-1-yl]-1-sec-butyl-2-methoxy-4-oxo-butyl}-methyl-carbamoyl)-2-methyl-propyl]-2-dimethylamino-3-methyl-butyramide]: 0.55 nM. The same measure, in the same setting: to `CCC(C)C(C(CC(=O)N1CCCC1C(CC(=O)NCCc1ccccc1)SC(C)(C)C)OC)N(C)C(=O)C(NC(=O)C(C(C)C)N(C)C)C(C)C` (stereo not shown) [N-[1-({1-sec-Butyl-4-[2-(1-tert-butylsulfanyl-2-phenethylcarbamoyl-ethyl)-pyrrolidin-1-yl]-2-methoxy-4-oxo-butyl}-methyl-carbamoyl)-2-methyl-propyl]-2-dimethylamino-3-methyl-butyramide] belongs 0.17 nM.

What is called IC50 is the concentration at which inhibition is half-maximal. For orientation: MTD means the largest dose that counted as tolerated.

The record behind these values is US6737409B2, “Dolastatin 10 derivatives” (Hoffmann-La Roche Inc., priority 2001, dated 2004).
